# Test system: Rat Model of Corneal Injury
# Assay: Rat model of corneal injury (corneal epithelial wound closure)
# Type: in vivo
# Settings: topical ocular 5 μl every 2 hrs for first 8 hrs, female Lewis rats, compared with positive control 0.4% HA; for normalized number of completely healed eyes (Healed 24 hours n=10): number/10 eyes
# Description: Female Lewis rats (175-200 g) were anesthetized with a xylazine/ketamine cocktail (5 mg/kg and 50 mg/kg respectively). A 3 mm diameter circle was superficially demarcated on the central cornea using a 3 mm trephine. Using a corneal rust ring remover (AlgerbrushΠ Alger Co.) tipped with a 1 mm steel burr; the corneal epithelium was removed to the basement membrane within the established 3 mm boundary Immediately following epithelial removal, the corneas were topically stained with 2% sodium fluorescein (Alcon), washed with balanced saline (BSS) and Time 0 hrs images acquired. After 24 hrs, animals were again anesthetized and Time 24 hrs images were acquired.
# Immediately after acquisition of Time 0 images, test articles (5 μl) were topically administered to the ocular surface. Animals received topical administration every 2 hrs for the first 8 hrs of the 24 hrs study time. A 0.4% solution of Hyaluronic Acid (HA) was prepared in phosphate-buffered saline (PBS). Compounds 1 and 5 were prepared in PBS and stored at −70° C. until use. During dosing, compounds were stored at 4° C.
# Anesthetized rats (Time 0: xylazine/ketamine; Time 24 hrs: 5% isoflurane gas). The area of the cornea devoid of epithelial cells was stained by topical application of a 2% sodium fluorescein solution (Alcon), followed 10 seconds later with a thorough rinsing with BSS. Images from stained eyes were collected with a Canon digital camera fitted with a macro and close-up lens such that the cornea filled almost the entire image field. A continuous and flash illumination was provided with a Novoflex Cold Light Source Macrolight Plus illuminator. The continuous source was used to focus the eye with the aid of the video output of the Canon camera. A flash lamp illuminator and ring light attached to the camera lens system provided a synchronized and uniform illumination of the corneal surface. Eyes were illuminated and images were captured through a set of filters designed for fluorescein excitation (482±35 nm) and emission (536±40 nm).
# Two image files were recorded for each exposure, a JPG-format RGB (red-green-blue) file used for image display and a Canon Raw file containing the raw sensor data. The raw data was extracted to a 16-bit portable greymap file that was subsequently processed with a demosaic function to make an image of only the green pixels containing the fluorescein information. A circular region of interest (ROI) was centered on the cornea and the automated analysis was performed using RatOSIWound v 2.0 software (Alcon). Automated analysis calculated the total fluorescein positive area of a single large spot indicative of the epithelial wound. The % closure at 24 hours (indicated as “% Closure 24 hours” on the ordinate axis of the graphs in FIGS. 1 and 3) was calculated as
# while the number of eyes that were totally healed (that is, had no detectable defect; indicated as “Healed 24 hours n=10” on the ordinate axis of the graphs in FIGS. 2 and 4), normalized as number/10 eyes, was also determined
# Data were analyzed using an ANOVA with a Dunnett post-hoc test at a 95% confidence interval.
compound,measurement,setting,value
COC(=O)CCC[C@H](O)[C@H](O)CO [compound 1],% wound closure (% Closure 24 hours),0.5% w/v dose in PBS,as effective as the positive control 0.4% HA
same,normalized number of completely healed eyes (Healed 24 hours n=10),0.5% w/v dose in PBS,as effective as the positive control 0.4% HA
same,% wound closure (% Closure 24 hours),1% w/v dose in PBS,as effective as the positive control 0.4% HA
same,normalized number of completely healed eyes (Healed 24 hours n=10),1% w/v dose in PBS,as effective as the positive control 0.4% HA
O=C([O-])CCC[C@H](O)[C@H](O)CO.[Li+] [compound 5],% wound closure (% Closure 24 hours),1% w/v dose in PBS,as effective as the positive control 0.4% HA
same,normalized number of completely healed eyes (Healed 24 hours n=10),1% w/v dose in PBS,as effective as the positive control 0.4% HA
